The record followed here is US12433861B2, “Compositions and methods for treating reperfusion injury or hemorrhage after recanalization therapy” (GNT Pharma Co., Ltd., priority 2020, dated 2025).

The subject of one data set is ischemic stroke patients. The conditions noted are these: human, in vivo, 5 days. How it is done:
NMDA receptor antagonists can cause adverse events in ischemic stroke patients.
The ENIS trial was to examine efficacy as well as safety of the intravenous infusions of nelonemdazK for acute ischemic stroke patients (35-80 years old) receiving at least one kind of thrombolytic drugs including rtPA or urokinase within 8 hours of onset. A total of 238 patients were enrolled for the ENIS trial and allocated randomly in a double-blinded manner to one of 4 groups for the intravenous infusions of test drugs as follows: (Group A) placebo [0.9% normal saline], (Group B) 2,750 mg nelonemdazK for 5 days [500 mg for 1st infusion followed by 2nd-10th infusions approximately at 12 h intervals (250 mg for each infusion)], (Group C) 5,250 mg nelonemdazK for 5 days [750 mg for 1st infusion followed by 2nd-10th infusions approximately at 12 h intervals (500 mg for each)], and (Group D) 6,000 mg nelonemdazK for 5 days [1500 mg for 1st infusion followed by 2nd-10th infusions approximately at 12 h intervals (500 mg for each)]. Acute ischemic stroke patients due to occlusion in internal carotid artery system within 8 hours of onset were enrolled. Patients with The National Institutes of Health Stroke Scale (NIHSS; range 0-42, with higher scores indicating greater stroke severity) scores of 4 to 22 and limb weakness including motor arm or motor leg score≥2 of NIHSS were included. All the patients received at least one kind of thrombolytic therapy before treatment of any study drug.

The next data set concerns adult rats. The conditions noted are these: rat, in vivo, iv, 200 mg/kg.

Structures are written as SMILES.

Take `O=C([O-])c1cc(NCc2c(F)c(F)c(C(F)(F)F)c(F)c2F)ccc1O.[K+]` [nelonemdazK, 2-Hydroxy-5-(2,3,5,6-tetrafluoro-4-trifluoromethylbenzylamino)benzoic acid potassium salt]: in the data set with ischemic stroke patients, the “% of subjects showing abnormal behavior: Agitation” value turned out to be 2%, the “% of subjects showing abnormal behavior: Confusion” value was 0 (0%), the “% of subjects showing abnormal behavior: Delirium” value is 0 (0%) and the “% of subjects showing abnormal behavior: Hallucination” value is reported as 0 (0%). Besides, in the data set with ischemic stroke patients, the “% of subjects showing abnormal behavior: Paranoia” value is 0 (0%), the “% of subjects showing abnormal behavior: Stupor” value is recorded as 1 (1%), the “Number of subjects showing abnormal behavior: Agitation” value came to 4 and the “Number of subjects showing abnormal behavior: Confusion” value was 0 (0%). In addition, in the data set with ischemic stroke patients, the “Number of subjects showing abnormal behavior: Delirium” value was 0 (0%), the “Number of subjects showing abnormal behavior: Hallucination” value was 0 (0%), the “Number of subjects showing abnormal behavior: Paranoia” value is recorded as 0 (0%) and the “Number of subjects showing abnormal behavior: Stupor” value is 1 (1%). Also, the neuronal injury entry in the data set with adult rats is “not observed”.
